Where “and” joins values, the source holds several entries; their conditions need not be identical. Equal entries are not always repeated. Results filed as inconclusive are left out.
Test system: CD8F1 mice, subcutaneous mammary adenocarcinoma, T/C%
Assay: NCI In Vivo Anticancer Drug Screen. Data for tumor model Mammary Adenocarcinoma CD8F1 (subcutaneous) in CD8F1
Conditions: higher = larger tumour
Description: The antitumor activity of compounds was measured in mice bearing transplantable tumors. Survival or tumor size were measured and the results are expressed as the measurement made in the treated group (T) divided by the measurement made in the vehicle treated control group (C). The tumor model used in this assay is Mammary Adenocarcinoma CD8F1 (subcutaneous) in CD8F1

[1] = endpoint: median tumor weight change, dose: 125.0 mg/kg/injection, schedule: Q01DX001 (ip), vehicle: saline with Tween-80
[2] = endpoint: median tumor weight change, dose: 250.0 mg/kg/injection, schedule: Q01DX001 (ip), vehicle: saline with Tween-80
[3] = endpoint: median tumor weight change, dose: 500.0 mg/kg/injection, schedule: Q01DX001 (ip), vehicle: saline with Tween-80
[4] = endpoint: median tumor weight change, dose: 1000.0 mg/kg/injection, schedule: Q01DX001 (ip), vehicle: saline with Tween-80
[5] = endpoint: median tumor weight (est.), dose: 100.0 mg/kg/injection, schedule: Q07DX005 (ip), vehicle: saline with Tween-80
[6] = endpoint: median tumor weight (est.), dose: 200.0 mg/kg/injection, schedule: Q07DX005 (ip), vehicle: saline with Tween-80
[7] = endpoint: median tumor weight (est.), dose: 200.0 mg/kg/injection, schedule: Q07DX005 (ip), vehicle: saline
[8] = endpoint: median tumor weight (est.), dose: 400.0 mg/kg/injection, schedule: Q07DX005 (ip), vehicle: saline

NCC1CCC(C(=O)O)CC1 (centres undefined)
T/C [1]: 63 % of control
T/C [2]: 86 % of control
T/C [3]: 36 % of control
T/C [4]: 97 % of control
T/C (endpoint: median tumor weight change, dose: 2000.0 mg/kg/injection, schedule: Q01DX001 (ip), vehicle: saline with Tween-80): 62 % of control

CC(=S)NC(O)C(=O)c1ccccc1 (centres undefined)
T/C (endpoint: median tumor weight (est.), dose: 25.0 mg/kg/injection, schedule: Q07DX005 (ip), vehicle: saline with Tween-80): 79 % of control
T/C [5]: 96 % of control
T/C [6]: 111 % of control

CC(C)NC(=O)N(CCCCBr)N=O
T/C (endpoint: median tumor weight change, dose: 49.37 mg/kg/injection, schedule: Q01DX001 (ip), vehicle: Klucel (hydroxypropylcellulose) (HPC)): 43 % of control
T/C (endpoint: median tumor weight change, dose: 62.0 mg/kg/injection, schedule: Q01DX001 (ip), vehicle: Klucel (hydroxypropylcellulose) (HPC)): 42 % of control
T/C (endpoint: median tumor weight change, dose: 98.75 mg/kg/injection, schedule: Q01DX001 (ip), vehicle: Klucel (hydroxypropylcellulose) (HPC)): 34 % of control
T/C (endpoint: median tumor weight change, dose: 197.5 mg/kg/injection, schedule: Q01DX001 (ip), vehicle: Klucel (hydroxypropylcellulose) (HPC)): -13 % of control
T/C (endpoint: median tumor weight change, dose: 395.0 mg/kg/injection, schedule: Q01DX001 (ip), vehicle: Klucel (hydroxypropylcellulose) (HPC)): -66 % of control
T/C (endpoint: median tumor weight change, dose: 500.0 mg/kg/injection, schedule: Q01DX001 (ip), vehicle: Klucel (hydroxypropylcellulose) (HPC)): -41 % of control

CCN(C)N=Nc1ccc(C(N)=O)cc1
T/C (endpoint: median tumor weight change, dose: 50.0 mg/kg/injection, schedule: Q01DX001 (ip), vehicle: Klucel (hydroxypropylcellulose) (HPC)): 51 % of control
T/C (endpoint: median tumor weight change, dose: 62.5 mg/kg/injection, schedule: Q01DX001 (ip), vehicle: Klucel (hydroxypropylcellulose) (HPC)): 92 % of control
T/C (endpoint: median tumor weight change, dose: 100.0 mg/kg/injection, schedule: Q01DX001 (ip), vehicle: Klucel (hydroxypropylcellulose) (HPC)): 72 % of control
T/C (endpoint: median tumor weight change, dose: 125.0 mg/kg/injection, schedule: Q01DX001 (ip), vehicle: Klucel (hydroxypropylcellulose) (HPC)): 91 % of control
T/C (endpoint: median tumor weight change, dose: 200.0 mg/kg/injection, schedule: Q01DX001 (ip), vehicle: Klucel (hydroxypropylcellulose) (HPC)): 44 % of control
T/C (endpoint: median tumor weight change, dose: 250.0 mg/kg/injection, schedule: Q01DX001 (ip), vehicle: Klucel (hydroxypropylcellulose) (HPC)): 24 % of control
T/C (endpoint: median tumor weight change, dose: 400.0 mg/kg/injection, schedule: Q01DX001 (ip), vehicle: Klucel (hydroxypropylcellulose) (HPC)): 21 % of control

COc1cc(C[C@H]2c3cc(OC)c(OC)cc3CCN2C)c(Oc2cc3c(cc2OC)-c2c(OC)c(OC)cc4c2[C@H](C3)N(C)CC4)cc1OC
T/C (endpoint: median tumor weight (est.), dose: 12.5 mg/kg/injection, schedule: Q07DX005 (ip), vehicle: saline): 118 % of control
T/C (endpoint: median tumor weight (est.), dose: 50.0 mg/kg/injection, schedule: Q07DX005 (ip), vehicle: saline): 95 % of control
T/C [7]: 52 % of control
T/C [8]: 67 % of control

Nc1cc(Cl)c2[nH]cnc2n1
T/C (endpoint: median tumor weight change, dose: 62.5 mg/kg/injection, schedule: Q01DX001 (ip), vehicle: distilled water + Tween-80): 76 % of control
T/C (endpoint: median tumor weight change, dose: 62.5 mg/kg/injection, schedule: Q01DX001 (ip), vehicle: water): 111 % of control
T/C (endpoint: median tumor weight change, dose: 125.0 mg/kg/injection, schedule: Q01DX001 (ip), vehicle: distilled water + Tween-80): 88 % of control
T/C (endpoint: median tumor weight change, dose: 125.0 mg/kg/injection, schedule: Q01DX001 (ip), vehicle: water): 100 % of control
T/C (endpoint: median tumor weight change, dose: 250.0 mg/kg/injection, schedule: Q01DX001 (ip), vehicle: distilled water + Tween-80): 58 % of control
T/C (endpoint: median tumor weight change, dose: 250.0 mg/kg/injection, schedule: Q01DX001 (ip), vehicle: water): 92 % of control
T/C (endpoint: median tumor weight change, dose: 500.0 mg/kg/injection, schedule: Q01DX001 (ip), vehicle: distilled water + Tween-80): 82 % of control
T/C (endpoint: median tumor weight change, dose: 500.0 mg/kg/injection, schedule: Q01DX001 (ip), vehicle: water): 73 % of control
T/C (endpoint: median tumor weight change, dose: 1000.0 mg/kg/injection, schedule: Q01DX001 (ip), vehicle: distilled water + Tween-80): 42 % of control
T/C (endpoint: median tumor weight change, dose: 1000.0 mg/kg/injection, schedule: Q01DX001 (ip), vehicle: water): 80 % of control

CC(C)CCCCCCCCCCCCC(=O)NCC(=O)NC1C(C)OC(Nc2ncnc3nc[nH]c23)C(O)C1O (centres undefined)
T/C (endpoint: median tumor weight (est.), dose: 8.0 mg/kg/injection, schedule: Q07DX005 (ip), vehicle: distilled water + Tween-80): 51 % of control
T/C (endpoint: median tumor weight (est.), dose: 16.0 mg/kg/injection, schedule: Q07DX005 (ip), vehicle: distilled water + Tween-80): 12 % of control

OCC1OC(n2cnc3c(NO)ncnc32)C(O)C1O (centres undefined)
T/C (endpoint: median tumor weight (est.), dose: 12.5 mg/kg/injection, schedule: Q07DX005 (ip), vehicle: Klucel (hydroxypropylcellulose) (HPC)): 104 % of control
T/C (endpoint: median tumor weight (est.), dose: 25.0 mg/kg/injection, schedule: Q07DX005 (ip), vehicle: Klucel (hydroxypropylcellulose) (HPC)): 66 % of control
T/C (endpoint: median tumor weight (est.), dose: 50.0 mg/kg/injection, schedule: Q07DX005 (ip), vehicle: Klucel (hydroxypropylcellulose) (HPC)): 85 % of control
T/C (endpoint: median tumor weight (est.), dose: 100.0 mg/kg/injection, schedule: Q07DX005 (ip), vehicle: Klucel (hydroxypropylcellulose) (HPC)): 91 % of control
T/C (endpoint: median tumor weight (est.), dose: 200.0 mg/kg/injection, schedule: Q07DX005 (ip), vehicle: Klucel (hydroxypropylcellulose) (HPC)): 69 % of control
T/C (endpoint: median tumor weight (est.), dose: 400.0 mg/kg/injection, schedule: Q07DX005 (ip), vehicle: Klucel (hydroxypropylcellulose) (HPC)): 113 % of control

NC(=O)NO
T/C (endpoint: median tumor weight (est.), dose: 25.0 mg/kg/injection, schedule: Q07DX005 (ip), vehicle: saline): 67 % of control
T/C (endpoint: median tumor weight (est.), dose: 100.0 mg/kg/injection, schedule: Q07DX005 (ip), vehicle: saline): 116 % of control
T/C [7]: 56 % of control
T/C [8]: 48 % of control
T/C (endpoint: median tumor weight (est.), dose: 800.0 mg/kg/injection, schedule: Q07DX005 (ip), vehicle: saline): 59 % of control

O=C(C#Cc1ccccc1)c1ccccc1
T/C (endpoint: median tumor weight (est.), dose: 0.39 mg/kg/injection, schedule: Q07DX005 (ip), vehicle: saline with Tween-80): 64 % of control
T/C (endpoint: median tumor weight (est.), dose: 0.78 mg/kg/injection, schedule: Q07DX005 (ip), vehicle: saline with Tween-80): 68 % of control
T/C (endpoint: median tumor weight (est.), dose: 1.56 mg/kg/injection, schedule: Q07DX005 (ip), vehicle: saline with Tween-80): 68 % of control
T/C (endpoint: median tumor weight (est.), dose: 3.12 mg/kg/injection, schedule: Q07DX005 (ip), vehicle: Klucel (hydroxypropylcellulose) (HPC)): 47 % of control
T/C (endpoint: median tumor weight (est.), dose: 3.12 mg/kg/injection, schedule: Q07DX005 (ip), vehicle: saline with Tween-80): 53 % of control
T/C (endpoint: median tumor weight (est.), dose: 6.25 mg/kg/injection, schedule: Q07DX005 (ip), vehicle: saline with Tween-80): 67 % of control
T/C (endpoint: median tumor weight (est.), dose: 12.5 mg/kg/injection, schedule: Q07DX005 (ip), vehicle: saline with Tween-80): 46 % of control

Cn1ccc(=Nc2ccc(NC(=O)c3ccc(N=c4ccn(C)c5ccc([N+](=O)[O-])cc45)cc3[N+](=O)[O-])cc2)cc1
T/C [5]: 48 % of control
T/C [6]: 124 % of control

CC(C)(C)N1CC1CNC(=O)C(=O)NCC1CN1C(C)(C)C (centres undefined)
T/C (endpoint: median tumor weight change, dose: 15.6 mg/kg/injection, schedule: Q01DX001 (ip), vehicle: saline with Tween-80): 50 % of control
T/C (endpoint: median tumor weight change, dose: 15.62 mg/kg/injection, schedule: Q01DX001 (ip), vehicle: saline with Tween-80): 30 % of control
T/C (endpoint: median tumor weight change, dose: 31.25 mg/kg/injection, schedule: Q01DX001 (ip), vehicle: saline with Tween-80): 30 % of control and 37 % of control

Cc1ccc2c(c1)C(=O)N(CC[P+](c1ccccc1)(c1ccccc1)c1ccccc1)C2=O
T/C (endpoint: mean tumor weight, dose: 1.56 mg/kg/injection, schedule: Q07DX006 (ip), vehicle: water): 90 % of control
T/C (endpoint: mean tumor weight, dose: 6.25 mg/kg/injection, schedule: Q07DX006 (ip), vehicle: water): 96 % of control
T/C (endpoint: median tumor weight (est.), dose: 3.12 mg/kg/injection, schedule: Q07DX005 (ip), vehicle: water): 56 % of control
T/C (endpoint: median tumor weight (est.), dose: 6.25 mg/kg/injection, schedule: Q07DX005 (ip), vehicle: water): 111 % of control

CCCCCCOC(CN(C)C)C(Cl)(Cl)Cl (centres undefined)
T/C (endpoint: median tumor weight change, dose: 100.0 mg/kg/injection, schedule: Q01DX001 (ip), vehicle: saline with Tween-80): 53 % of control
T/C [1]: 173 % of control
T/C (endpoint: median tumor weight change, dose: 200.0 mg/kg/injection, schedule: Q01DX001 (ip), vehicle: saline with Tween-80): 68 % of control
T/C [2]: 81 % of control
T/C (endpoint: median tumor weight change, dose: 400.0 mg/kg/injection, schedule: Q01DX001 (ip), vehicle: saline with Tween-80): 93 % of control
T/C [3]: 72 % of control
T/C [4]: 79 % of control

C/C(=N\NC(=S)N1CCN(c2ccccn2)CC1)c1ccccn1
T/C (endpoint: median tumor weight change, dose: 12.5 mg/kg/injection, schedule: Q01DX001 (ip), vehicle: other): 74 % of control
T/C (endpoint: median tumor weight change, dose: 25.0 mg/kg/injection, schedule: Q01DX001 (ip), vehicle: other): 76 % of control
T/C (endpoint: median tumor weight change, dose: 50.0 mg/kg/injection, schedule: Q01DX001 (ip), vehicle: other): 87 % of control
